The results in this text go back to ChEMBL document CHEMBL6153062, “Design, Synthesis, and Unprecedented Interactions of Covalent Dipeptide-Based Inhibitors of SARS-CoV-2 Main Protease and Its Variants Displaying Potent Antiviral Activity” (J Med Chem, 2025).

A short description of experiment [1]: Inhibition of SARS-CoV-2 MPro A173 V mutant. On the set-up: species or system Severe acute respiratory syndrome coronavirus 2.
A short description of experiment [2]: Inhibition of SARS-CoV-2 MPro deltaP168 mutant. On the set-up: species or system Severe acute respiratory syndrome coronavirus 2.
Experiment [3] can be described thus: Inhibition of SARS-CoV-2 MPro S144A mutant. On the set-up: species or system Severe acute respiratory syndrome coronavirus 2.
Experiment [4] in a line: Inhibition of SARS-CoV-2 MPro M165T mutant. Also noted: species or system Severe acute respiratory syndrome coronavirus 2.
Experiment [5] in a line: Inhibition of SARS-CoV-2 MPro H172F mutant. On the set-up: species or system Severe acute respiratory syndrome coronavirus 2.
A short description of experiment [6]: Inhibition of SARS-CoV-2 MPro S144Y mutant. Also noted: species or system Severe acute respiratory syndrome coronavirus 2.
The nature of experiment [7]: Inhibition of SARS-CoV-2 MPro S144M mutant. Also noted: species or system Severe acute respiratory syndrome coronavirus 2.
The nature of experiment [8]: Inhibition of SARS-CoV-2 MPro Q189E mutant. On the set-up: species or system Severe acute respiratory syndrome coronavirus 2.
A short description of experiment [9]: Inhibition of SARS-CoV-2 MPro L50F/E166A/L167F mutant. On the set-up: species or system Severe acute respiratory syndrome coronavirus 2.
The nature of experiment [10]: Inhibition of SARS-CoV-2 MPro E166 V mutant. Also noted: species or system Severe acute respiratory syndrome coronavirus 2.
Experiment [11] is described as follows: Inhibition of SARS-CoV-2 MPro S144F mutant. On the set-up: species or system Severe acute respiratory syndrome coronavirus 2.
The nature of experiment [12]: Inhibition of SARS-CoV-2 MPro H172Q mutant. On the set-up: species or system Severe acute respiratory syndrome coronavirus 2.
A short description of experiment [13]: Inhibition of SARS-CoV-2 MPro S144G mutant. Also noted: species or system Severe acute respiratory syndrome coronavirus 2.
A short description of experiment [14]: Inhibition of SARS-CoV-2 MPro Q192S mutant. On the set-up: species or system Severe acute respiratory syndrome coronavirus 2.
Experiment [15] can be described thus: Inhibition of SARS-CoV-2 MPro H172Y mutant. On the set-up: species or system Severe acute respiratory syndrome coronavirus 2.
Experiment [16] can be described thus: Inhibition of SARS-CoV-2 MPro G143S mutant. Also noted: species or system Severe acute respiratory syndrome coronavirus 2.
Experiment [17] has as its system Severe acute respiratory syndrome coronavirus 2. The experiment in a line: Selectivity index, ratio of IC50 for inhibition of SARS-CoV-2 MPro S144M mutant to IC50 for inhibition of wild type SARS-CoV-2 MPro.
Experiment [18] shares this test system. The experiment in a line: Selectivity index, ratio of IC50 for inhibition of SARS-CoV-2 MPro S144Y mutant to IC50 for inhibition of wild type SARS-CoV-2 MPro.
Experiment [19] has the same test system. In words: Selectivity index, ratio of IC50 for inhibition of SARS-CoV-2 MPro S144A mutant to IC50 for inhibition of wild type SARS-CoV-2 MPro.
Experiment [20] shares this test system. The experiment in a line: Selectivity index, ratio of IC50 for inhibition of SARS-CoV-2 MPro deltaP168 mutant to IC50 for inhibition of wild type SARS-CoV-2 MPro.
Experiment [21] shares this test system. In words: Selectivity index, ratio of IC50 for inhibition of SARS-CoV-2 MPro H172Q mutant to IC50 for inhibition of wild type SARS-CoV-2 MPro.
The test system is the same in experiment [22]. The experiment in a line: Selectivity index, ratio of IC50 for inhibition of SARS-CoV-2 MPro G143S mutant to IC50 for inhibition of wild type SARS-CoV-2 MPro.
Experiment [23] shares this test system. In words: Selectivity index, ratio of IC50 for inhibition of SARS-CoV-2 MPro S144F mutant to IC50 for inhibition of wild type SARS-CoV-2 MPro.
For experiment [24] the test system is unchanged. The experiment in a line: Selectivity index, ratio of IC50 for inhibition of SARS-CoV-2 MPro H172Y mutant to IC50 for inhibition of wild type SARS-CoV-2 MPro.
Experiment [25] shares this test system. In words: Selectivity index, ratio of IC50 for inhibition of SARS-CoV-2 MPro S144G mutant to IC50 for inhibition of wild type SARS-CoV-2 MPro.
For experiment [26] the test system is unchanged. The experiment in a line: Selectivity index, ratio of IC50 for inhibition of SARS-CoV-2 MPro L50F/E166A/L167F mutant to IC50 for inhibition of wild type SARS-CoV-2 MPro.
For experiment [27] the test system is unchanged. In words: Selectivity index, ratio of IC50 for inhibition of SARS-CoV-2 MPro E166 V mutant to IC50 for inhibition of wild type SARS-CoV-2 MPro.
Experiment [28] has the same test system. The experiment in a line: Selectivity index, ratio of IC50 for inhibition of SARS-CoV-2 MPro H172F mutant to IC50 for inhibition of wild type SARS-CoV-2 MPro.
Experiment [29] has the same test system. The experiment in a line: Selectivity index, ratio of IC50 for inhibition of SARS-CoV-2 MPro A173 V mutant to IC50 for inhibition of wild type SARS-CoV-2 MPro.
For experiment [30] the test system is unchanged. In words: Selectivity index, ratio of IC50 for inhibition of SARS-CoV-2 MPro M165T mutant to IC50 for inhibition of wild type SARS-CoV-2 MPro.
For experiment [31] the test system is unchanged. The experiment in a line: Selectivity index, ratio of IC50 for inhibition of SARS-CoV-2 MPro Q192S mutant to IC50 for inhibition of wild type SARS-CoV-2 MPro.
Experiment [32] shares this test system. The experiment in a line: Selectivity index, ratio of IC50 for inhibition of SARS-CoV-2 MPro Q189E mutant to IC50 for inhibition of wild type SARS-CoV-2 MPro.

For `CC(C)(C)[C@H](NC(=O)C(F)(F)F)C(=O)N1C[C@H]2[C@@H]([C@H]1C(=O)N[C@H](C#N)C[C@@H]1CCNC1=O)C2(C)C`, the IC50 (commonly the midpoint of a concentration-inhibition curve) was determined as 85.5 nM in experiment [1]; 47 nM in experiment [2]; 41.7 nM in experiment [3]; 181 nM in experiment [4]; 1700 nM in experiment [5]; 203 nM in experiment [6]. The IC50 in [7] came to 426 nM; in [8], 199 nM; in [9], 512 nM; in experiment [10], 2620 nM; in experiment [11], 176 nM.
As for `C=CC(=O)[C@H](Cc1ccccc1)NC(=O)[C@H](CC(C)C)NC(=O)COc1ccc(Cl)cc1Cl`, the IC50 in experiment [1] stood at 140 nM; in [2] it was 368 nM; in [3] it was 328 nM; in experiment [12], 390 nM; in experiment [4], 1390 nM; in experiment [5], 313 nM. The IC50 in experiment [6] came to 497 nM; in experiment [7] it was 745 nM; in experiment [13], 472 nM; in experiment [8] it was 714 nM; in experiment [14], 488 nM; in experiment [9], 392 nM. For the same compound, the IC50 in [10] was found to be 409 nM; in experiment [11], 636 nM; in experiment [15], 1280 nM; in [16], 230 nM.
`C=CC(=O)[C@H](Cc1cccc(Cl)c1)NC(=O)[C@H](CC(C)C)NC(=O)CSc1ccccc1`: the IC50 turned out to be 82.4 nM in experiment [1]; 65.4 nM in experiment [2]; 42.5 nM in [3]; 159 nM in experiment [12]; 260 nM in experiment [4]; 146 nM in experiment [5]. The 50% inhibitory concentration (IC50) amounted to 244 nM in experiment [6]; 414 nM in experiment [7]; 254 nM in experiment [13]; 211 nM in experiment [8]; 261 nM in experiment [14]; 239 nM in [9]. Also, the IC50 in [10] was 236 nM; in experiment [11] it was 219 nM; in experiment [15], 297 nM; in [16] it was 155 nM. In addition, the Ratio IC50 in [17] was found to be 35.4; in experiment [18], 20.9; in experiment [19] it was 3.6; in experiment [20], 5.6; in experiment [21], 13.6; in experiment [22], 13.2. In addition, the Ratio IC50 in [23] amounted to 18.7; in [24], 25.4; in experiment [25], 21.7; in experiment [26], 20.4; in experiment [27], 20.2; in experiment [28], 12.5. Further, the Ratio IC50 in experiment [29] was found to be 7; in [30], 22.2; in experiment [31] it was 22.3; in experiment [32], 18.
